For one experiment, the system named is C57BL/6J mice. Description: Amphetamine induced locomotion. To be noted: pretreatment 1 mg/kg. Type of experiment: in vivo, mouse. As to the method: Amphetamine Induced Locomotion. The amphetamine-induced hyperlocomotion assay was performed using male and female C57BL/6J mice that were approximately 8 weeks old at the time of the experiments. Animals were first placed in the test arena (40 cm×40 cm) for 15 min to obtain a basal reading of locomotion and habituate them to the testing arena. Next, animals were administered (+)-JRT (1 mg/kg) or VEH (2.5 mL/kg, i.p) and placed back in the test arena. After 15 min, the animals were administered D-amphetamine (3 mg/kg) or VEH (2.5 mL/kg) and placed back in the test arena for 60 minutes. Locomotion during the entire experiment was quantified using ANYmaze Video Tracking System, version 7.07 (Stoelting Co.).

The subject of another experiment is Sprague Dawley rats. Description: Rat forced swim test (FST). Type of experiment: in vivo. The note with it: FST 24 h after compound administration; ketamine as comparator. As to the method: Rat Forced Swim Test (FST). This study was performed by Psychogenics (Paramus, NJ). Male Sprague Dawley rats were purchased from Envigo (Indianapolis, IN), and upon receipt, they were assigned unique identification numbers (tail marked) and group housed in ventilated cages with 3 rats per cage. All animals remained housed in groups of three for the remainder of the study. All rats were acclimated to the colony room for up to one week prior to dosing. During the period of acclimation, rats were examined and handled daily, and weighed to assure adequate health and suitability. The room temperature was maintained between 20° C. and 23° C. with a relative humidity of 30%-70%. Lab Rodent Diet 5001 (W.F. Fisher, Cat #11015) and water were provided ad libitum. […] All animals were carefully monitored to ensure their safety in the swim test and any animal unable to maintain a posture with its nose above water was immediately removed from the water and not used further in the study. […] This test lasted for 5 min and was video recorded. A blinded experimenter manually scored the videos for swimming, climbing, and immobility behavior. Scoring of the forced swim test was performed by trained technicians using a time sampling technique in which the animal in the video recorded test was viewed every 5 seconds and the behavior observed was noted (e.g., immobile, swimming, or climbing). […]

The next experiment relates to PSYLI2 cells. In words: PsychLight assays (agonist and antagonist mode). Type of experiment: cell-based. To be noted: FIG. 3C-3E; agonist mode concentration-response, antagonist mode 1 μM. As to the method:
PsychLight Assays. Psychlight assays were performed using a previously published method. Briefly, glass bottom 96-well plates were coated with 50 μg/mL of poly-D-lysine overnight at room temperature and then washed with Dulbecco's PBS. PSYLI2 cells were suspended in DMEM containing 10% FBS with 5% penicillin-streptomycin, plated at a density of 40,000 cells/well, and incubated (37° C., 5% CO2) for 24 h prior to each experiment. Immediately before an experiment, stock solutions of drugs in DMSO were diluted 1:100 in imaging media distributed across an empty 96-well plate (treatment plate) following a randomized plate map. The imaging media consisted of 1×HBSS containing […] and […]. […] Data were from 2 plates with 2-3 wells being analyzed per plate. […]
Once imaging was complete, the images were exported, and analyzed using a custom Python script. […] The mask was generated by calculating the average fluorescence intensity for the entire image and using that value as a threshold. […] The % ΔF/F values for each well were calculated using the following equation: […]
Once imaging was complete, the images were exported, and analyzed using a custom Python script. […] The mask was generated by calculating the average fluorescence intensity for the entire image and using that value as a threshold. […]

We go through 1 compound from patent publication US12637464B2, “Tetracyclic compounds for treating brain disorders” (The Regents of the University of California, priority 2021, dated 2026).

`CCN(CC)C(=O)[C@@H]1C=C2c3cccc4ccn(c34)C[C@H]2N(C)C1` [(+)-JRT]: the “AMPH-induced hyperlocomotion, female mice” value in the experiment with C57BL/6J mice is on record as “can block”. Further, the “antidepressant-like effects in rat FST” value in the experiment on Sprague Dawley rats is “antidepressant-like effects comparable to ketamine at substantially lower doses”. Besides, in the experiment with PSYLI2 cells, the “hallucinogenic potential (psychLight)” value is listed as “low hallucinogenic potential”.
